Paper PMC9241943, “LcCCL28-25, Derived from Piscine Chemokine, Exhibits Antimicrobial Activity against Gram-Negative and Gram-Positive Bacteria In Vitro and In Vivo” (Microbiology Spectrum, 2022)
≈ marks a conversion by molar mass, not a printed value. Counter-ions that a name gives are not always drawn. Residues, ends and D or L forms follow the SMILES beside them.

Experiments:
[1] = system: P. aeruginosa FRD1; assay type: cell-based, Pseudomonas aeruginosa; settings: FRD1, 2 h
Experimental: (§1) The MIC assays were performed as previously described ([43]). Briefly, peptides were plated in a 2-fold dilution series (50 μL/well) of Mueller-Hinton broth (MHB) in Costar 96-well cell culture plates (Corning, NY, USA). Three repeats were set for each concentration. E. coli ATCC 25922, A. hydrophila ATCC 7966, P. aeruginosa PAO1, P. aeruginosa FRD1, S. aureus ATCC 25923, S. agalactiae ATCC 13813, S. pneumoniae ATCC 49619, methicillin-resistant S. aureus ATCC 43300, and methicillin-resistant S. aureus USA300 were cultured in Luria-Bertani (LB) medium, while K. pneumoniae CMCC46117 was cultured in tryptic soy broth (TSB) medium. Incubation was done at 37°C and 150 × g for 12 h. Bacteria were transferred to fresh MHB at a ratio of 1% (vol/vol) and incubated to reach a logarithmic growth phase. Then, 50 μL of a bacterial suspension at 4 × 10^6 CFU/mL was added to each well. […]

[2] = system: Aeromonas hydrophila ATCC 7966; assay type: cell-based; settings: ATCC 7966, 2 h
Experimental: as §1

[3] = system: Escherichia coli ATCC 25922; assay type: cell-based; settings: ATCC 25922, 2 h
Experimental: as §1

[4] = system: Klebsiella pneumoniae CMCC46117; assay type: cell-based; settings: CMCC46117, 2 h
Experimental: as §1

[5] = system: Pseudomonas aeruginosa PAO1; assay type: cell-based; settings: PAO1, 2 h
Experimental: as §1

[6] = system: Staphylococcus aureus ATCC 25923; assay type: cell-based; settings: ATCC 25923, 2 h
Experimental: as §1

[7] = system: Streptococcus agalactiae ATCC 13813; assay type: cell-based; settings: ATCC 13813, 2 h
Experimental: as §1

[8] = system: Streptococcus pneumoniae ATCC 49619; assay type: cell-based; settings: ATCC 49619, 2 h
Experimental: as §1

[9] = system: Methicillin-resistant S. aureus ATCC 43300; assay type: cell-based, Staphylococcus aureus; settings: ATCC 43300, 2 h
Experimental: as §1

[10] = system: Methicillin-resistant S. aureus USA300; assay type: cell-based, Staphylococcus aureus; settings: USA300, 2 h
Experimental: as §1

[11] = system: E. coli ATCC 25922; experiment: SYTOX green membrane permeability assay; assay type: cell-based, Escherichia coli; settings: E. coli ATCC 25922, 5 μM SYTOX green, read every 1 min
Experimental: The SYTOX green staining assay was performed to assess peptide-associated membrane damage ([47], [52]). E. coli ATCC 25922 and S. aureus ATCC 25923 cells in the mid-logarithmic phase were collected, washed thrice, and resuspended (5 × 10^7 CFU/mL) in buffer B (10 mM Tris-HCl, pH 7.4, at 25°C). The bacterial suspensions were mixed with 5 μM SYTOX green and incubated for 15 min at room temperature in the dark. Then, the mixtures were added to black, clear-bottom 96-well plates at a density of 100 μL/well. After peptide addition, SYTOX green uptake was monitored using an EnSpire multimode plate reader (PerkinElmer, Singapore) with an excitation wavelength of 485 nm and an emission wavelength of 520 nm. Each measurement interval was 1 min, totaling 30 to 60 times. Melittin was used as the positive control, while bovine serum albumin (BSA) was the negative control.

[12] = data not shown
[13] = system: methicillin-resistant S. aureus standard strain USA300; experiment: Neutropenic mouse thigh infection model; assay type: in vivo; settings: neutropenic BALB/c mice, 300 μg i.p. at 2 h postinfection
Experimental: Female BALB/c mice were used to construct a neutropenic murine thigh infection model as previously published ([48][–][50]). Briefly, mice (n = 9/group) were rendered neutropenic by consecutive intraperitoneal injections of 150 and 100 mg/kg of body weight cyclophosphamide at 4 and 1 day before bacterial injection ([51]). An S. aureus USA300 inoculum (~1.5 × 10^6 CFU/mL) was prepared by diluting logarithmic phase bacteria with fresh MHB. Each mouse was infected by intramuscular injection of 0.1 mL of the inoculum (~1.5 × 10^5 CFU) into the right thigh muscles. At 2 h postinfection, 0.1 mL of lcCCL28-25 peptide (300 μg) or vancomycin hydrochloride (300 μg, 15 mg/kg) was administered by intraperitoneal injection. The control group was injected with an equal volume of PBS. Untreated control mice were sacrificed at the start of treatment to establish the baseline bacterial burden. Mice in the three treatment groups (PBS, vancomycin, and lcCCL28-25) were sacrificed at 48 h postinfection. Their right thighs were aseptically harvested, placed in sterile saline and homogenized using a Bioprep-6 homogenizer (Allsheng, Hangzhou, China). After being serially diluted to 1:10 in sterile saline, 100-μL amounts of tissue suspensions at various concentrations were plated on LB agar to determine bacterial counts after incubation at 37°C for 24 h.

[14] = system: P. aeruginosa FRD1 biofilm; experiment: Biofilm inhibition assay (crystal violet); assay type: cell-based, Pseudomonas aeruginosa; settings: P. aeruginosa FRD1, 6.25 μg/mL (0.5× MIC), 37°C 24 h, triplicate
Experimental: In vitro static biofilm models have been reported in many studies ([45][–][47]). A Pseudomonas aeruginosa mucoid strain, FRD1, isolated from a cystic fibrosis patient, was used for the biofilm inhibition and eradication assay. The FRD1 strain was shock cultured to logarithmic growth stage at 37°C and 150 × g. After cleaning using PBS and centrifuging thrice, the bacteria were resuspended in MHB medium (with 0.2% glucose) and gradient diluted to an OD600 value of ~0.01.
For the biofilm inhibition assay, 90-μL amounts of bacterial suspensions and 10-μL amounts of increasing concentrations of the peptide were added to a 96-well plate and coincubated at 37°C for 24 h. Then, bacterial biofilms were quantified as follows: (i) planktonic bacteria were removed by washing thrice using PBS, (ii) biofilm bacteria were fixed in 100 μL of 4% paraformaldehyde at room temperature for 15 min and (iii) stained with 100 μL of 0.1% crystal violet for 30 min, (iv) the dye was removed, followed by washing twice using PBS, adding 200 μL of 95% ethanol to each well to dissolve the crystal violet, and finally, (v) absorbance was measured at 590 nm using an EnSpire multimode plate reader (PerkinElmer, Singapore).

Structure (SMILES)	MIC [1]	MIC [2]	MIC [3]	MIC [4]	MIC [5]	MIC [6]	MIC [7]	MIC [8]	MIC [9]	MIC [10]	SYTOX green fluorescence intensity [11]	solubility in 50% TFE solution [12]	reduction in average bacterial load in thighs versus control group ([13]; S. aureus USA300 i.m., 48 h postinfection)	mice that died after 48 h of infection ([13]; n = 9/group, three died in PBS group)	reduction of biofilm formation [14]
CSCC[C@H](NC(=O)[C@H](CCCNC(=N)N)NC(=O)[C@H](CCCCN)NC(=O)[C@H](CC(C)C)NC(=O)[C@H](CCCCN)NC(=O)[C@H](CCCNC(=N)N)NC(=O)[C@H](CCCCN)NC(=O)[C@@H](NC(=O)[C@H](CCCCN)NC(=O)[C@@H]1CCCN1C(=O)[C@H](Cc1c[nH]cn1)NC(=O)[C@H](C)N)C(C)C)C(=O)N[C@@H](CCC(N)=O)C(=O)N[C@@H](CCCNC(=N)N)C(=O)N[C@@H](CCCCN)C(=O)N[C@@H](CCCCN)C(=O)N[C@@H](CC(=O)O)C(=O)NCC(=O)N[C@@H](CCCCN)C(=O)N[C@@H](CCC(N)=O)C(=O)N[C@@H](CCCCN)C(=O)N[C@@H](CCCNC(=N)N)C(=O)N[C@@H](Cc1c[nH]cn1)C(=O)O [omCCL28-like-23] (H-AHPKVKRKLKRMQRKKDGKQKRH-OH; N-terminus and C-terminus assumed)	25.00 µg/mL (≈ 8.67 µM)	>50.00 µg/mL	12.50 µg/mL (≈ 4.34 µM)	>50.00 µg/mL	25.00 µg/mL (≈ 8.67 µM)	12.50 µg/mL (≈ 4.34 µM)	12.50 µg/mL (≈ 4.34 µM)	25.00 µg/mL (≈ 8.67 µM)	25.00 µg/mL (≈ 8.67 µM)	12.50 µg/mL (≈ 4.34 µM)	increased rapidly within 20 min	insoluble			
CN[C@H](CC(C)C)C(=O)N[C@H]1C(=O)N[C@@H](CC(N)=O)C(=O)N[C@H]2C(=O)N[C@H]3C(=O)N[C@H](C(=O)N[C@H](C(=O)O)c4cc(O)cc(O)c4-c4cc3ccc4O)[C@H](O)c3ccc(c(Cl)c3)Oc3cc2cc(c3O[C@@H]2O[C@H](CO)[C@@H](O)[C@H](O)[C@H]2O[C@H]2C[C@](C)(N)[C@H](O)[C@H](C)O2)Oc2ccc(cc2Cl)[C@H]1O [vancomycin, vancomycin hydrochloride, reference compound]													1.30 log10 CFU/g	none	
CC[C@H](C)[C@H](NC(=O)[C@H](CCC(N)=O)NC(=O)[C@H](CCSC)NC(=O)[C@H](C)NC(=O)[C@@H](NC(=O)CNC(=O)[C@H](CC(C)C)NC(=O)[C@@H](NC(=O)[C@H](CCCCN)NC(=O)[C@H](CCCCN)NC(=O)[C@@H](NC(=O)[C@H](CCCNC(=N)N)NC(=O)[C@@H]1CCCN1C(=O)[C@H](CC(=O)O)NC(=O)[C@H](C)N)C(C)C)C(C)C)C(C)C)C(=O)N[C@@H](CCCNC(=N)N)C(=O)N[C@@H](CCCCN)C(=O)N[C@@H](C)C(=O)N[C@@H](CCC(N)=O)C(=O)N[C@@H](CC(C)C)C(=O)N[C@@H](CCSC)C(=O)N[C@@H](CCCNC(=N)N)C(=O)N[C@@H](CCC(=O)O)C(=O)N[C@@H](CCCCN)C(=O)N[C@@H](CC(C)C)C(=O)N[C@@H](CC(N)=O)C(=O)N[C@@H](CO)C(=O)N[C@H](C(=O)N[C@@H](CCSC)C(=O)N[C@@H](CCCNC(=N)N)C(=O)N[C@@H](CCCNC(=N)N)C(=O)O)[C@@H](C)CC [omCK11-31] (H-ADPRVKKVLGVAMQIRKAQLMREKLNSIMRR-OH; N-terminus and C-terminus assumed)	12.50 µg/mL (≈ 3.44 µM)	>50.00 µg/mL	12.50 µg/mL (≈ 3.44 µM)	25.00 µg/mL (≈ 6.87 µM)	25.00 µg/mL (≈ 6.87 µM)	12.50 µg/mL (≈ 3.44 µM)	12.50 µg/mL (≈ 3.44 µM)	12.50 µg/mL (≈ 3.44 µM)	12.50 µg/mL (≈ 3.44 µM)	12.50 µg/mL (≈ 3.44 µM)	fluorescence trends similar to the trends in E. coli cells treated with lcCCL28-25				~ 45%
